Results on ten molecules are retold here after PubChem BioAssay AID1963851 (Molecular Pharmacology Branch, DTP, NCI, 2024).

The subject of this experiment is 188146-221-R-J1-PDC complex spheroid viability. The experiment can be described thus: Anticancer human tumor 188146-221-R-J1-PDC patient-derived colon adenocarcinoma cell line growth inhibition [POLQ]. Particulars: for viability, T/C: stronger effect = lower value. As to the method: Multicellular complex tumor spheroid response to Polymerase (POL) inhibitors (novobiocin, ART-558, RP6685) in combination with a variety of drugs and investigational agents in selected tumor cell lines
The POL inhibitors (novobiocin, ART-558, and RP6685) were evaluated both individually and in combination with standard of care and investigational anticancer small molecules within a complex spheroid model of solid tumors. . Complex spheroids include a stromal component modeled by human endothelial cells (HUVEC) and fibroblasts modeled by human mesenchymal stem cells (MSCs). The concentration ranges selected for each drug and investigational agent were based upon clinically achievable concentrations if the clinical Cmax of the agent was known.
Compounds. The drugs and investigational agents: novobiocin (NSC847541), ART-558 (NSC835418), RP-6685 (NSC848927), peposertib (NSC802822), ceralasertib (NSC780249), elimusertib (NSC800525), camonsertib (NSC841442), AZD-1390 (NSC803789), olaparib (NSC753686), talazoparib (NSC767125), rucaparib (NSC756644), sotorasib (NSC818433), MRTX-1133 (NSC836407), SN-38 (NSC673596), topotecan (NSC609699), epotoside (NSC141540), doxorubicin (NSC123127), gemcitabine (NSC613327), 5-fluorouracil (NSC19893), paclitaxel (NSC125973), vemurafenib (NSC761431), MSA-2 (NSC828583), SN-011 (NSC837082), adavosertib (NSC754352), prexasertib (NSC758257), carboplatin (NSC241240) and oxaliplatin (NSC266046), were obtained from the National Cancer Institute (NCI) Developmental Therapeutics Program Chemical Repository (21). The FDA-approved anticancer drug set is available from the Developmental Therapeutics Program at https://dtp.cancer.gov/organization/dscb/obtaining/. […] The stock solutions were prepared in dimethyl sulfoxide (DMSO, Sigma-Aldrich, St. Louis, MO, cat. D2650), except for the platinum compounds which were prepared in saline (Quality Biological, Gaithersburg, MD, cat. 114-055-101), at 800-fold the tested concentration and stored at -70 degrees C prior to their use. All drugs and investigational agents were tested over a range starting from a high concentration at or near the clinical Cmax and decreasing in half-log increments. If the clinical Cmax for an agent had not been determined, the highest concentration tested was 10 microM, except for SN-38, which was tested at a high concentration of 1 microM.
Cell Culture. All cells were maintained in an incubator at 37 degrees C and 5% CO2 with 95% humidity. The PDC lines were cultured according to standard operating procedures established by the NCI PDMR (https://pdmr.cancer.gov). Table 3 of the manuscript, lists the cell lines along with the number of the three cell types plated to form the mct-spheroids and media for tumor cell growth. After thawing, all PDC lines, except 997537-175-T-J1-PDC and 415267-285-R-J2-PDC, were cultured in Matrigel-coated flasks prepared with a working solution of 1X Ham's F-12 nutrient mix, without supplementation (Thermo Fisher Scientific, cat. 11765054), 100 U/mL penicillin-streptomycin (Thermo Fisher Scientific, cat. 15140122), and 2.5% Matrigel (Corning Inc., Corning, NY, cat. 354248) for the first three passages. The two PDC lines 997537-175-T-J1-PDC and 415267-285-R-J2-PDC were cultured on uncoated flasks. The 857933-349-R-J2-PDC line was cultured in 6C/Colon 1B media containing advanced DMEM/F-12 (Thermo Fisher Scientific, cat. 12634028), 10 mM HEPES (Thermo Fisher Scientific, cat. 15630080), 1X GlutaMAX supplement (Thermo Fisher Scientific, cat. 35050061), 0.1 mg/mL primocin (InvivoGen, San Diego, CA, cat. ant-pm-2), 10% defined fetal bovine serum, heat inactivated (HyClone Laboratories Inc., Logan, UT, cat. SH30070.03HI), 50% L-WRN conditioned media (ATCC, cat. CRL-3276), 1.25 mM N-Acetyl-L-cysteine (Sigma-Aldrich, cat. A9165), 10 mM nicotinamide (Sigma-Aldrich, cat. N0636), 1X B-27 supplement (Thermo Fisher Scientific, cat. 17504044), 1X N-2 supplement (Thermo Fisher Scientific, cat. […]

Structures are written as SMILES. “And” between values parts separate entries of the source, which are not always exact repeats. Equal values may be shown once.
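Also: spheroids exposed to compounds for seven days.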

One may read the viability, T/C as the ratio of treated to control. Usually IC50 stands for the concentration that gives 50% inhibition. As for `COC1C(OC(N)=O)C(O)C(Oc2ccc3c(O)c(NC(=O)c4ccc(O)c(CC=C(C)C)c4)c(=O)oc3c2C)OC1(C)C` (centres undefined), the viability, T/C was 103% [middle of 12 runs] (compound 0.0316 µM); 102% [middle of 13 runs] (compound 0.316 µM); 105% [middle of 13 runs] (compound 1 µM); 107% [middle of 13 runs] (compound 3.16 µM); 108% [middle of 13 runs] (compound 10 µM). The IC50 (compound alone, run of 10/31/2023) was above 10000 nM.

On to `COc1cc(C2c3cc4c(cc3C(OC3OC5COC(C)OC5C(O)C3O)C3COC(=O)C23)OCO4)cc(OC)c1O` (centres undefined), for which the viability, T/C runs as follows: (compound 0.0316 µM) 115% and 92.4% and 98.7%; (compound 0.1 µM) 102% and 84.8% and 107%; (compound 0.316 µM) 77% and 71.8% and 65.6%; (compound 1 µM) 51.8% and 43.3% and 50.5%; (compound 3.16 µM) 30.1% and 27.2% and 24.4%; (compound 10 µM) 23.1% and 24.8% and 25%. In addition, the IC50 (curve of compound) is 1030 nM and 758 nM and 789 nM.

Consider `COc1ccc([C@@H](O)c2cc(-c3ncnc4cc(N5CCOCC5)ccc34)c(F)cc2Cl)nn1`, for which the viability, T/C (compound 0.0316 µM) was 102% and 91.7% and 100%; the viability, T/C (compound 0.1 µM) is 101% and 92.3% and 96.1%; the viability, T/C (compound 0.316 µM) is 90.7% and 97.8% and 96.1%; the viability, T/C (compound 1 µM) was 90.2% and 101% and 91.3%; the viability, T/C (compound 3.16 µM) is 68.4% and 78.3% and 67.7%; the viability, T/C (compound 10 µM) was 32.3% and 39.1% and 29.9%. In addition, the IC50 (curve of compound) is 5750 nM and 7260 nM and 5430 nM.

Turning to `COc1cccc(OCCCN)c1-c1cc(Nc2cnc(C#N)cn2)n[nH]1`, the viability, T/C (compound 0.00316 µM) is 97.7% and 99% and 88.2%; the viability, T/C (compound 0.01 µM) is 88.1% and 99.5% and 101%; the viability, T/C (compound 0.0316 µM) was 42.7% and 75.8% and 72.2%; the viability, T/C (compound 0.1 µM) is 20.7% and 37.1% and 32.8%; the viability, T/C (compound 0.316 µM) is 12.7% and 16.1% and 16.8%; the viability, T/C (compound 1 µM) is 9.17% and 13% (2×). Moreover, the half-inhibitory concentration (IC50) (curve of compound) is 27.2 nM and 68 nM and 61.2 nM.

As to `COc1cccc2c1C(=O)c1c(O)c3c(c(O)c1C2=O)CC(O)(C(=O)CO)CC3OC1CC(N)C(O)C(C)O1` (centres undefined), the viability, T/C runs as follows: (compound 0.0316 µM) 78% and 71.8% and 78.2%; (compound 0.1 µM) 60.5% and 38.2% and 54.6%; (compound 0.316 µM) 32.8% and 29.6% and 32.9%; (compound 1 µM) 8.2% and 10% and 11.1%; (compound 3.16 µM) 1.38% and 0.34% and 0.33%; (compound 10 µM) 0.57% and 0.47% and 0.49%. Moreover, the IC50 (curve of compound) was 155 nM and 73.6 nM and 132 nM.

Take `Cn1ncnc1[C@H]1c2n[nH]c(=O)c3cc(F)cc(c23)N[C@@H]1c1ccc(F)cc1`: the viability, T/C is 102% and 97.5% and 109% (compound 0.000316 µM); 112% and 93.3% and 103% (compound 0.001 µM); 89.9% and 107% and 95.2% (compound 0.00316 µM); 99.5% and 108% and 103% (compound 0.01 µM); 104% and 87% and 114% (compound 0.0316 µM); 95.4% and 95.5% and 82.1% (compound 0.1 µM). For the same molecule, under “curve of compound”, the IC50 was above 100 nM.

In the case of `Nc1ccc(C#CCN(C(=O)Cc2ncc(C(F)(F)F)cc2C(F)(F)F)c2ccc(F)cc2)nn1`, the viability, T/C was 94.8% [middle of 12 runs] (compound 0.0316 µM); 99.1% [middle of 13 runs] (compound 0.1 µM); 105% [middle of 13 runs] (compound 0.316 µM); 102% [middle of 13 runs] (compound 1 µM); 101% [middle of 12 runs] (compound 3.16 µM); 108% [middle of 13 runs] (compound 10 µM). Besides, the IC50 (compound alone, run of 11/06/2023) was above 10000 nM.

Take `Nc1ccn(C2OC(CO)C(O)C2(F)F)c(=O)n1` (centres undefined): the viability, T/C was 27.1% and 27.6% and 53.7% (compound 0.0316 µM); 17.8% and 15.8% and 24.2% (compound 0.1 µM); 13.2% and 15.2% and 14.9% (compound 0.316 µM); 16.1% and 16.9% and 13.9% (compound 1 µM); 15.9% and 19.2% and 16.6% (compound 3.16 µM); 10.9% (2×) and 15.4% (compound 10 µM). Moreover, under “curve of compound”, the IC50 is < 31.6 nM and 36.4 nM.

`O=C(c1cc(Cc2n[nH]c(=O)c3ccccc23)ccc1F)N1CCN(C(=O)C2CC2)CC1`: the viability, T/C is 95.8% and 103% and 101% (compound 0.0316 µM); 105% and 101% and 97% (compound 0.1 µM); 89.8% and 97.6% and 92.6% (compound 0.316 µM); 90.3% and 81.9% and 108% (compound 1 µM); 104% and 95.4% and 97.6% (compound 3.16 µM); 73.3% and 74% and 74.6% (compound 10 µM). Also, the IC50 (curve of compound) was above 10000 nM.

Consider `O=c1[nH]cc(F)c(=O)[nH]1`, for which the viability, T/C is, setting by setting: (compound 0.0316 µM) 102% and 101% and 107%; (compound 0.1 µM) 95.6% and 97.8% and 103%; (compound 0.316 µM) 66.6% and 74% and 69.3%; (compound 1 µM) 59.6% and 61.5% and 58.3%; (compound 3.16 µM) 44.9% and 51.3% and 45.6%; (compound 10 µM) 31.6% and 43.5% and 31.8%. The IC50 (curve of compound) is 1830 nM and 3020 nM and 1680 nM.
